The source of these data is US7722863B2, “Use of granzyme b as an hsp70/hsp70 peptide dependent inducer of apoptosis in tumor cells” (Multimmune GmbH, priority 2002, dated 2010).

In test [1] the test system is CX+ tumor cells. The test can be described thus: DAPI staining of nuclear DNA fragmentation. It is filed as cell-based, human. As to conditions: 24 h, camptothecin 4 μg/ml or granzyme B 6 ng/ml. As to the method:
(§1) DAPI-staining: Methanol/aceton fixed cells (0.1×10^6 cells/100 μl) were incubated with 0.5 μg/μl 4,6-diamino-2-phenylindole (DAPI) in PBS/glycerol (3:1), for 15 min in the dark. Following washing in PBS the cells were mounted with Fluorescent Mounting Medium (Dako, Glostrup, Denmark) and than analysed for fluorescence using a Zeiss model Axioscop 2 scanning microscope (Zeiss Jena, Germany) equipped with a 40× objective and standard filters. Apoptosis was visualized with DAPI-staining in 50 cells, each. Images were treated by multiplicative shading correction using software Axiovision (Zeiss Vision Jena, Germany).

In test [2] the test system is CX− tumor cells. The test can be described thus: DAPI staining of nuclear DNA fragmentation. Format: cell-based, human. Conditions: 24 h, camptothecin 4 μg/ml or granzyme B 6 ng/ml. How it is done:
as §1

Another test deals with Colo− tumor cells. The test can be described thus: DAPI staining of nuclear DNA fragmentation. Format: cell-based, human. As to conditions: 24 h, camptothecin 4 μg/ml or granzyme B 6 ng/ml. How it is done: as §1
The next test concerns Colo+ tumor cells. Put plainly: DAPI staining of nuclear DNA fragmentation. It is filed as cell-based, human. As to conditions: 24 h, camptothecin 4 μg/ml or granzyme B 6 ng/ml. How it is done:
as §1

Test [3] deals with CX+ tumor cells. Put plainly: Cytochrome c release, quantitative immunoassay. Format: cell-based, human. As to conditions: camptothecin 4 μg/ml or granzyme B 6 ng/ml, 24 h. As to the method:
(§2) Cytochrome c release: Cytochrome c release was determined using a quantitative immunoassay; (DCDCO, R&D Systems, Wiesbaden, Germany). Briefly, either untreated, camptothecin (4 μg/ml) or granzyme B (6 ng/ml) treated CX+ and CX− cells (1.5×10^6/ml) were washed in PBS and treated with lysis buffer for 1 h at room temperature. Following centrifugation at 1,000 g for 15 min supernatants were removed and 200 μl of a 1:100, 1:250, and a 1:500 dilution was used for a sandwich ELISA. Following incubation with substrate solution in the dark for 30 min the reaction was stopped. The optical density of each well was determined on an ELISA reader at 450 nm. The amount of cytochrome c was determined according to a calibration curve.
(§3) As an additional test for apoptotic cell death, cytochrome c release was measured following incubation of CX+ and CX− cells with granzyme B for 24 h. As summarized in Table I, following incubation with granzyme B (6 ng/ml) for 24 h, cytochrome c concentration was elevated from 0.382 mg/ml to 0.690 mg/ml (1.8-fold) in CX+ cells. […] It was propose that the trigger of apoptosis by granzyme B is mediated via the extracellular exposed Hsp70 epitope TKD.

Test [4] has as its system CX− tumor cells. The test can be described thus: Cytochrome c release, quantitative immunoassay. It is filed as cell-based, human. As to conditions: camptothecin 4 μg/ml or granzyme B 6 ng/ml, 24 h. As to the method: as §2, §3
In test [5] the test system is Hsp70 membrane-positive CX+ cells. The test can be described thus: Annexin V-FITC apoptosis assay (flow cytometry). As to conditions: camptothecin 4 μg/ml or granzyme B 6 ng/ml; for fold increase of Annexin V-FITC positively stained CX+ cells: versus untreated. Format: cell-based, human. As to the method:
(§4) Exponentially growing tumor cells (day 1 after cell passage) were used for granzyme B, camptothecin treatment and as targets in cytotoxicity assays.
(§5) Stock solutions of camptothecin (4 mg/ml, Sigma, Munich, Germany) were diluted in DMSO and stored at 4° C. in the dark. Granzyme B (6 ng/ml, Hölzel Diagnostics, Cologne, Germany) solutions were freshly prepared directly before usage. Exponentially growing cells (0.5-1.5×10^6/ml) were incubated either with camptothecin at a final concentration of 4 μg/ml or with purified, enzymatically active granzyme B (10 ng/ml, 1 μg/ml, 2 μg/ml; 4 μg/ml) (Shi et. al. (2000) Methods in Enzymology 322, 125) for 10 min, and 30 min either at 4° C. or at 37° C. After washing in RPMI-1640 medium binding and uptake was determined in nonpermeabilized and permeabilized tumor cells by flow cytometry and fluorescence microscopy on a Axioscop 25 scanning microscope (Zeiss, Jena, Germany) equipped with a 40× objective and standard filters. Images were treated by multiplicative shading correction using the software Axiovison (Zeiss Vison, Jena, Germany). Granzyme B was visualized in red by using the HC2-PE antibody.
(§6) Apoptotic Cell Death was Determined after Incubation of Tumor Cells with 6 ng/ml Granzyme B for 4 h, 12 h, and 24 h at 37° C. and Washing in RPMI-1640 Medium by Different Apoptosis Assays, as Described Below. Apoptosis Assays
(§7) Annexin V-FITC staining: Briefly, cells were washed twice in Hepes buffer containing 5 mM CaCl2 and incubated with Annexin V-FITC (Roche) for 10 min at room temperature. Annexin V-FITC positively stained cells were measured on a FACSCalibur flow cytometer (Becton Dickinson, Heidelberg, Germany).
(§8) The preceding findings posed the question whether purified granzyme B can induce apoptosis of tumor cells that present Hsp70 on their cell surface. […] As a positive control for apoptosis all cell types were incubated with the topoisomerase inhibitor camptothecin at a concentration of 4 μg/ml. Apoptosis was determined by Annexin V-FITC staining measured by FACS (FACSCalibur, Becton Dickinson, Heidelberg, Germany), DAPI staining and mitochondrial cytochrome c release. Apoptosis was not detected in CX+ and CX− cells incubated with camptothecin (cam) or granzyme B (grB) for 4 h incubation (FIG. 3A). […] It appeared that the colon carcinoma sublines CX+/CX− are better protected towards a camptothecin-mediated cell death as compared to the pancreas carcinoma sublines Colo+/Colo−.
On the technique in general: In flow cytometry, cells or beads pass a laser one at a time.

Test [6] relates to Hsp70 membrane-negative CX− cells. The test can be described thus: Annexin V-FITC apoptosis assay (flow cytometry). Format: cell-based, human. As to conditions: for apoptosis in CX− cells: camptothecin 4 μg/ml or granzyme B 6 ng/ml; for amount of Annexin V-FITC positively stained CX− cells / fold increase of Annexin V-FITC positively stained CX− cells: camptothecin 4 μg/ml; for fold increase of Annexin V-FITC positively stained CX− cells: versus untreated. How it is done:
as §4, §5, §6, §7, §8

Test [7] relates to Hsp70 membrane-positive Colo+ cells. Put plainly: Annexin V-FITC apoptosis assay (flow cytometry). Format: cell-based, human. As to conditions: 12 h and 24 h; camptothecin 4 μg/ml. As to the method:
as §4, §5, §6, §7, §8

For test [8], the system named is Hsp70 membrane-negative Colo− cells. Put plainly: Annexin V-FITC apoptosis assay (flow cytometry). It is filed as cell-based, human. As to conditions: 12 h and 24 h; camptothecin 4 μg/ml or granzyme B 6 ng/ml. How it is done: as §4, §5, §6, §7, §8
In test [9] the test system is Hsp70 membrane-positive tumor target cells. Conditions: Hsp70-protein 10 to 50 μg/ml; cited from earlier work.

Consider `CC[C@@]1(O)C(=O)OCc2c1cc1n(c2=O)Cc2cc3ccccc3nc2-1` [camptothecin, reference compound], for which the “nuclear DNA fragmentation (DAPI)” value with CX+ tumor cells [1], in the test on CX− tumor cells [2], in the test with Colo− tumor cells and in the test on Colo+ tumor cells was “exhibited nuclear fragmentation” each time. The “cytochrome c fold increase” value in the test with CX+ tumor cells [3] (control 1.0) and in the test on CX− tumor cells [4] (control 1.0) was 1.5 fold in each case. For the same compound, the cytochrome c in the test with CX+ tumor cells [3] (mean of 4 experiments ± S.E., control 0.382 ± 0.02) is 0.555 ± 0.04 mg/mL; in the test with CX− tumor cells [4] (mean of 4 experiments ± S.E., control 0.452 ± 0.02), 0.672 ± 0.02 mg/mL. Further, the “apoptosis in CX+ cells” value is “not detected” in [5] (4 h incubation); “underwent apoptosis” in [5] (12 h and 24 h). Further, the “amount of Annexin V-FITC positively stained CX+ cells” value in test [5] (12 h, untreated 16.6%) turned out to be 28.0%; in test [5] (24 h, untreated 18%) it was 39%. Moreover, the “fold increase of Annexin V-FITC positively stained CX+ cells” value in test [5] (12 h) is given as 1.7 fold; in [5] (24 h), 2.1 fold. The “apoptosis in CX− cells” value in [6] (4 h incubation) is on record as “not detected”; in [6] (12 h and 24 h) it was “underwent apoptosis”. Besides, the “amount of Annexin V-FITC positively stained CX− cells” value in test [6] (12 h, untreated 12.1%) was 19.8%; in [6] (24 h, untreated 11.9%), 25.1%. Also, the “fold increase of Annexin V-FITC positively stained CX− cells” value was 1.6 fold in test [6] (12 h) and 2.1 fold in test [6] (24 h). In addition, the “apoptosis in Colo+ cells” value in [7] is “underwent apoptosis”. Further, the “apoptosis in Colo− cells” value in [8] was “underwent apoptosis”.
As to “Hsp70-protein: recombinant human Hsp70-protein (Stressgen)”, the “cytolytic activity of NK cells against Hsp70 membrane-positive tumor target cells” value in [9] is on record as “increased cytolytic activity”.
